Source: the NIST ThermoML archive (doi:10.1021/je9002114)

Assays:
[1] = xn = mol fraction of the nth substance listed; conditions: 298.15 K, Ring tensiometer
[2] = 298.15 K; for surface tension liquid-gas: Ring tensiometer; for mass density: 101.33 kPa, Liquid

CCCCOC(C)=O [butyl ethanoate] + CN(C)C=O
[1]
Conditions	surface tension liquid-gas [mN/m]
x1 = 0.0508	35.02
x1 = 0.0995	33.45
x1 = 0.1441	32.35
x1 = 0.1809	31.7
x1 = 0.25	30.5
x1 = 0.2962	29.75
x1 = 0.3447	29.19
x1 = 0.3904	28.66
x1 = 0.4455	28.19
x1 = 0.4954	27.69
x1 = 0.5443	27.35
x1 = 0.5956	27.07
x1 = 0.648	26.66
x1 = 0.6993	26.36
x1 = 0.7466	26.16
x1 = 0.7935	25.81
x1 = 0.8467	25.65
x1 = 0.8983	25.47
x1 = 0.9464	25.26

CCCCCOC(C)=O [pentyl ethanoate]
[2]
Conditions	mass density [kg/m3]	surface tension liquid-gas [mN/m]
–	870.17	25.21

CN(C)C=O [dimethylformamide]
[2]
Conditions	mass density [kg/m3]	surface tension liquid-gas [mN/m]
–	943.81	36.98

CCCCCCOC(C)=O [hexyl ethanoate] + CN(C)C=O
[1]
Conditions	surface tension liquid-gas [mN/m]
x1 = 0.0495	35.78
x1 = 0.0964	35.06
x1 = 0.1435	34.43
x1 = 0.198	33.72
x1 = 0.2432	33.16
x1 = 0.299	32.51
x1 = 0.349	31.96
x1 = 0.397	31.46
x1 = 0.444	31.02
x1 = 0.4969	30.57
x1 = 0.5461	30.12
x1 = 0.5945	29.72
x1 = 0.6434	29.35
x1 = 0.6908	29.01
x1 = 0.7457	28.61
x1 = 0.7896	28.31
x1 = 0.8466	27.99
x1 = 0.8951	27.67
x1 = 0.9494	27.41

CCCCCCOC(C)=O [hexyl ethanoate] + C1COCCO1
[1]
Conditions	surface tension liquid-gas [mN/m]
x1 = 0.0467	32.56
x1 = 0.0925	32.06
x1 = 0.1414	31.56
x1 = 0.1905	31.1
x1 = 0.2422	30.62
x1 = 0.2921	30.17
x1 = 0.3417	29.79
x1 = 0.3934	29.43
x1 = 0.4434	29.11
x1 = 0.495	28.81
x1 = 0.5433	28.56
x1 = 0.5962	28.29
x1 = 0.6408	28.09
x1 = 0.6859	27.91
x1 = 0.7406	27.71
x1 = 0.7981	27.52
x1 = 0.8426	27.38
x1 = 0.8954	27.22
x1 = 0.9448	27.12

CCCCCCOC(C)=O [hexyl ethanoate]
[2]
Conditions	mass density [kg/m3]	surface tension liquid-gas [mN/m]
–	868.52	26.39

CCCCCOC(C)=O [pentyl ethanoate] + CN(C)C=O
[1]
Conditions	surface tension liquid-gas [mN/m]
x1 = 0.05	34.9
x1 = 0.0941	34.08
x1 = 0.1466	33.24
x1 = 0.198	32.24
x1 = 0.2452	31.67
x1 = 0.2909	30.99
x1 = 0.3496	30.37
x1 = 0.3978	29.95
x1 = 0.4481	29.3
x1 = 0.4998	28.87
x1 = 0.5453	28.59
x1 = 0.5998	28.05
x1 = 0.6445	27.78
x1 = 0.6901	27.39
x1 = 0.7499	27.09
x1 = 0.7958	26.83
x1 = 0.8477	26.51
x1 = 0.8965	26.23
x1 = 0.9397	26.09

CCCCOC(C)=O [butyl ethanoate] + C1COCCO1
[1]
Conditions	surface tension liquid-gas [mN/m]
x1 = 0.05	31.19
x1 = 0.0975	30.51
x1 = 0.1457	29.87
x1 = 0.1995	29.32
x1 = 0.2485	28.88
x1 = 0.2883	28.55
x1 = 0.3445	28.13
x1 = 0.3932	27.79
x1 = 0.4475	27.47
x1 = 0.4929	27.21
x1 = 0.5486	26.93
x1 = 0.592	26.69
x1 = 0.6429	26.45
x1 = 0.6933	26.2
x1 = 0.7466	25.97
x1 = 0.7954	25.8
x1 = 0.8438	25.56
x1 = 0.8901	25.36
x1 = 0.9419	25.16

CCCCOC(C)=O [butyl ethanoate]
[2]
Conditions	mass density [kg/m3]	surface tension liquid-gas [mN/m]
–	876.38	24.85

C1COCCO1 [1,4-dioxane]
[2]
Conditions	mass density [kg/m3]	surface tension liquid-gas [mN/m]
–	1027.82	32.71

CCCCCOC(C)=O [pentyl ethanoate] + C1COCCO1
[1]
Conditions	surface tension liquid-gas [mN/m]
x1 = 0.05	32.35
x1 = 0.1026	31.65
x1 = 0.1516	31.05
x1 = 0.2062	30.52
x1 = 0.2562	30.05
x1 = 0.311	29.48
x1 = 0.3637	29.01
x1 = 0.4209	28.58
x1 = 0.4616	28.27
x1 = 0.5112	27.92
x1 = 0.5614	27.55
x1 = 0.6136	27.3
x1 = 0.6558	27.07
x1 = 0.7043	26.89
x1 = 0.7538	26.71
x1 = 0.8033	26.56
x1 = 0.8511	26.39
x1 = 0.8956	26.26
x1 = 0.9449	26.12
